# According to patent publication US20020159981A1, “Methods of controlling proliferation and differentiation of stem and progenitor cells” (Gamida-Cell Ltd., priority 1999, published 2002):
# Legend:
# [1] = test system: Cord blood-derived CD34 cells; assay: Long-term liquid culture of CD34 cells: proliferation, CFUc, differentiation status; assay type: cell-based, human; settings: for cell proliferation and generation of CFUc in long-term cultures: long-term cultures (FIGS. 21, 22)
# Method: (§1) Culture procedures: For the expansion of progenitor cells, CD34^+ enriched fractions or unseparated mononuclear cells were seeded at about 1-3×10^4 cells/ml in either alpha minimal essential medium containing 10% preselected fetal calf serum (FCS) (both from GIBCO, Grand Island, N.Y.), or serum-free medium (Progenitor-34 medium, Life Technologies, Grand Island, N.Y.). The media were supplemented with a mixture of growth factors and transition metal chelators. The cultures were incubated at 37° C. in an atmosphere of 5% CO2 in air with extra humidity. Half of the medium was changed weekly with fresh medium containing all the supplements.
# (§2) Cloning potential evaluations: The cloning potential of cells developed in the liquid culture was assayed, at different intervals, in semi-solid medium. The cells were washed and seeded in 35 mm dishes in methylcellulose containing alpha medium supplemented with recombinant growth factors (SCF, G-CSF, GM-CSF and EPO). Following 2 weeks incubation, the cultures were scored with an inverted microscope. Colonies were classified as blast, mixed, erythroid, myeloid, and megakaryocytic, according to their cellular composition.
# Morphological assessment: In order to characterize the resulting culture populations, aliquots of cells were deposited on a glass slide (cytocentrifuge, Shandon, Runcorn, UK), fixed and stained in May-Grunwald Giemsa. Other aliquots were stained by benzidine for intracellular hemoglobin.
# TEPA effects on proliferation and clonability of long-term CD34^+ cultures: Long-term cultures were maintained for 3-5 weeks by weekly demi-depopulation (one half of the culture volume was removed and replaced by fresh medium and cytokines).
# CD34^+ cells derived from human neonatal cord blood were purified by immunomagnetic method and then cultured in liquid medium supplemented with cytokines either with or without transition metal chelators. At weekly intervals, the cultures were demi-depopulated by removing half of the culture content (supernatant and cells) and replacing it with fresh medium, cytokines and the chelators. At the indicated weeks the cellular content of the cultures were quantified for total cells (by a manual microscopic/hemocytometric method), for CD34^+ cells (by immuno-flow cytometry) and for clonogenic cells (by cloning the cells in cytokine-supplemented semi-solid medium). The cultures were initiated with 1×10^4 cells, 50-80% of which were CD34^+ and 25-50% of which were CFUc. The results presented in FIGS. 11 to 24 were calculated per 1×10^4 initiating cells (the numbers were multiplied by the dilution factors).
# [2] = test system: HL-60 cells; assay: Copper determination in chelator treated cells (atomic absorption); assay type: cell-based, human
# Method: Copper Determination: Cells were harvested by centrifugation at 1000×g for 5 minutes. The cell pellet was washed three times by re-suspending the cells in PBS (Ca^++ and Mg^++ free) and centrifugation at 1000×g. An aliquot containing 2×10^6 cells was then transferred into a metal-free Eppendorf tube and the cells were recovered by centrifugation at 1000×g. The cell pellet was re-suspended in 0.03 M ultra-pure nitric acid to give a concentration of 1×10^7 cells/ml. The cells were homogenized with a high shear mixer (polytron, Kinematica, Switzerland) for 1 minutes to disrupt the cell and release intracellular copper content. Cell samples were vortexed before transferring to a vial autosampler and analyzed in duplicate by a Perkin Elmer graphite furnace atomic absorption spectrophotometer at a wavelength of 324.7 nm. The samples were analyzed against copper standard solution prepared from a commercial stock solution that was diluted with 0.03 M ultra pure nitric acid.
# [3] = test system: Cord blood-derived CD34 cells; assay: Short-term liquid culture of CD34 cells: cell number, CD34 cells, colony forming cells; assay type: cell-based, human; settings: for effects of transition metal chelators on CD34^+ cells: 10 μM, day 7 (FIG. 7); for reversal of TEPA activities by supplemented ions: TEPA-treated cultures, short to medium term (FIGS. 8, 9)
# Method: The interphase layer of mononuclear cells were collected, washed three times with Ca/Mg free phosphate buffered saline containing 1% bovine serum albumin (BSA). The cells were incubated for 30 min. at 4° C. with murine monoclonal anti CD34 antibody (0.5 μg/10^6 mononuclear cells) and thereafter isolated using the miniMACS apparatus (Miltenyi-Biotec, Bergisch, Gladbach, Germany) according to the manufacturer's protocol.
# as §1, §2
# Immunofluorescence staining: At different intervals, cells from the liquid cultures were assayed for CD34 antigen. Aliquots were harvested, washed and incubated on ice with FITC-labeled anti CD45 monoclonal antibody and either PE-labeled anti CD34 (HPCA-2) monoclonal antibody or PE-labeled control mouse Ig. After incubation, red cells were lysed with lysing solution, while the remaining cells were washed and analyzed by flow cytometer.
# Flow cytometry: Cells were analyzed and sorted using FACStarPlus flow cytometer (Becton-Dickinson, Immunofluorometry systems, Mountain View, Calif.). Cells were passed at a rate of 1,000 cells/second through a […] nozzle, using saline as the sheath fluid. A 488 nm argon laser beam at 250 mW served as the light source for excitation. […] The PMTs was set at the appropriate voltage. Logarithmic amplification was applied for measurements of fluorescence and linear amplification—for forward light scatter. At least 10^4 cells were analyzed.
# Cord blood-derived CD34 cells were plated in liquid culture in the presence of: FL—50 ng/ml, SCF—50 ng/ml, IL-6—50 ng/ml, with or without IL-3—20 ng/ml, with or without TEPA—10 μM. On day 7, the percentage of CD34 cells and the total cell number were determined. Aliquots equivalent to 1×10^3 initiating cells were assayed on days 0 and 7 for colony forming cells (CFU) by cloning in semi-solid medium. CFU expansion represents the ratio of CFU present on day 7 to CFU present on day 0.
# [4] = test system: Murine erythroleukemia cells (MEL); assay: HMBA-induced differentiation and growth of erythroleukemic cells; assay type: cell-based, mouse; settings: day 3 (Table 2)
# Method: Mouse erythroleukemic cells (MEL): MEL cells are erythroblast like cells. Following treatment with several chemicals (differentiation inducers) the cells undergo erythroid differentiation and accumulate hemoglobin. […] At day 3 of the culture, the total number of cells and the percentage of hemoglobin-containing cells were determined (Table 2).
# On day 3, total cell number and hemoglobin containing (benzidine positive) cells were determined.
# [5] = test system: cord blood-derived CD34^+ cells; assay: Copper-chelating peptides on proliferation and clonability in CD34 cell cultures; assay type: cell-based; settings: for decrease of cell number / decrease of clonogenic potential (CFUc): peptides 10 μM, cytokines 10 ng/ml each; for decrease of cell number: after 7 weeks (FIG. 25a); for decrease of clonogenic potential (CFUc): after 7 weeks (FIG. 25b); for effect on cell differentiation: second group of Copper chelators
# Method: Culture procedures: For the expansion of progenitor cells, CD34^+ enriched fractions were seeded at 1×10^4 cells/ml in alpha minimal essential medium containing 10% preselected fetal calf serum (FCS) (both from GIBCO, Grand Island, N.Y.). The medium was supplemented with a mixture of growth factors and Copper chelators. The cultures were incubated at 37° C. in an atmosphere of 5% CO2 in air with extra humidity. Half of the medium was changed weekly with fresh medium containing all the supplements.
# The cloning potential of the cultured cells was assayed in semi-solid medium. The cells were washed and seeded in 35 mm dishes in methylcellulose containing alpha medium supplemented with 30% FCS and further with recombinant growth factors (stem cell factor (SCF), G-CSF, GM-CSF and erythropoietin (EPO)). Following two week incubation, the cultures were scored with an inverted microscope. Colonies were classified as blast, mixed, erythroid, myeloid, and megakaryocytic, according to their cellular composition.
# The effect of Copper-chelating peptides on proliferation and clonability in CD34 cell cultures: Cultures were initiated with 10^4 cord blood-derived CD34^+ cells by plating purified cells in liquid medium in the presence of SCF, FLT3 and IL-6 (50 ng/ml each) and the Copper-binding peptides, Gly-Gly-His (GGH) or Gly-His-Lys (GHL) (10 μM each), or the late-acting cytokines G-CSF and GM-CSF (10 ng/ml each). At weekly intervals, the cultures were demi-depopulated and supplemented with fresh medium, cytokines and the peptides. After 7 weeks, cells were counted and assayed for CFUc.
# [6] = polyamine chelating agents, weeks 3, 4, 6, 7 (FIGS. 21a-b)
compound,measurement,setting,value
"C1CNCCNCCNCCN1 [1,4,7,10-Tetraaza cyclododecane]",activity on differentiation of CD34^+ cells,[1],stimulate differentiation
"C1CNCCNCCN1.Cl.Cl.Cl [1,4,7-Triazacyclononane trihydrochioride]",Average Intracellular Cu (% of control),[2]; 20 μM,32%
same,Average Intracellular Cu (% of control),[2]; 100 μM,36%
"O=C1CC(=O)NCCNCCCNCCN1 [1,4,8,11-Tetraaza cyclotetradecane-5,7-dione]",Average Intracellular ppb Cu,"[2]; 100 μM, control 49 + − 18",274 ppb
"C[C@H](CS)C(=O)N1CCC[C@H]1C(=O)O [Captopril, captopril, reference compound]",effects of transition metal chelators on CD34^+ cells,[3],share the same effects on CD34^+ cells as TEPA
same,HMBA-induced differentiation of MEL cells,[4],inhibited
"O=S(=O)([O-])[O-].[Cu+2] [Copper, Copper-sulfate]",reversal of TEPA activities by supplemented ions,[3],reversed
"NCCN [EDA, ethylenediamine]",cell proliferation and generation of CFUc in long-term cultures,[1],support continuous cell proliferation and long-term generation of CFUc and to delay cell differentiation
same,concentrations with optimal activity,[1]; [6],20 µM
"CC(C)(S)[C@@H](N)C(=O)O [Penicilamine, penicilamine, reference compound]",effects of transition metal chelators on CD34^+ cells,[3],share the same effects on CD34^+ cells as TEPA
same,cell proliferation and generation of CFUc in long-term cultures,[1],sustained cell proliferation and expansion of clonogenic cells
same,concentrations with optimal activity,"[1]; transition metal chelating agents, weeks 4, 5, 7 (FIGS. 22a-b)",5 µM
"NCCNCCNCCN [Triethylene tetramine, triethylene-tetramine]",cell proliferation and generation of CFUc in long-term cultures,[1],support continuous cell proliferation and long-term generation of CFUc and to delay cell differentiation
same,concentrations with optimal activity,[1]; [6],20 µM
"O=S(=O)([O-])[O-].[Zn+2] [Zinc, Zinc-sulfate]",clonability of the cultures,[3]; Zinc alone (FIG. 10),expand the clonability
same,effect of Zinc in long term cultures,"[1]; FIGS. 23a-b, to a smaller extent than the chelators",mimicked the effect of the chelating agents
"O=[Se]([O-])[O-].[Na+].[Na+] [selenium, sodium selenite]",reversal of TEPA activities by supplemented ions,[3],did not
Gly-Gly-His (GHK) [GGH],activity on differentiation of CD34^+ cells,[1],stimulate differentiation
same,decrease of cell number,[5],10%
same,decrease of clonogenic potential (CFUc),[5],80%
same,effect on cell differentiation,[5],accelerate cell differentiation
Gly-His-Lys (GGH) [GHL],activity on differentiation of CD34^+ cells,[1],stimulate differentiation
same,decrease of cell number,[5],25%
same,decrease of clonogenic potential (CFUc),[5],78%
same,effect on cell differentiation,[5],accelerate cell differentiation
iron,reversal of TEPA activities by supplemented ions,[3],did not
